Reference: patent US4619932A, “Novel carbostyril derivatives, process for producing thereof and pharmaceutical composition containing the same” (Otsuka Pharmaceutical Co., Ltd., priority 1980, dated 1986)
Structures can show the parent of a compound that is named as a salt. Where two headings read alike, the source gives them in different places.

Columns and labels:
[1] = tested on: epinephrine; experiment: Activity for antagonizing epinephrine in mouse; format: in vivo, mouse (male, ddy strain); details: read-out: ED50 value, dose allowing half the animals to survive
Protocol: (C) Activity for antagonizing epinephrine in mouse
Individual male mice of ddy strain having 17 to 20 g of body weight were used. The mice were abstained from eating for 24 hours. One test group consist of 10 mice. A compound to be tested was administered orally. One hour after the administration, 40 mg/kg of epinephrine was intraperitonerally administered. […] All of 10 mice administered physiological saline solution as the reference group were dead within a few minutes after the administration of epinephrine. (Cf. Loew, E. R. and Micetich, A., J. Pharmacol. Exp. Ther., 93, 434-443 (1948)).

[2] = tested on: male rats; details: rat, in vivo, po
Protocol: Each of the following compound of the general formula in the present invention was administered orally to male rats to determine the acute toxicity (LD50 mg/kg).

[3] = tested on: Halothane anesthesia; experiment: Halothane anesthesia increasing activity; format: in vivo, mouse (male, ddy-strain); details: 16 mg/kg oral, 1 hour before 4% Halothane for 3 minutes; righting reflex
Protocol: Male mice of ddy-strain a having about 20 g body weight were used. One test group consists of 10 mice. An aqueous Gummi Arabicum suspension of test compound (80 mg of a compound to be tested and 1 g of Gummi Arabicum/100 ml of physiological NaCl solution) was administered orally to each mouse at the dosage of 16 mg of test compound/kg body. One hour after the administration, each mouse was placed in gas respiration chamber (13×13×24 cm) and oxygen gas containing 4% of Halothane (2-brome-2-chloro-1,1,1-trifluoroethane) was flown into the chamber at the velocity of 2/min for 3 minutes. A mouse anaesthetized was taken out from the chamber and the time between the introduction of anesthesia to waking was measured by righting reflex as the index. To mice of control group, 1% Gummi Arabicum aqueous physiological solution was orally administered at the dosage of 0.1 ml/kg body.

[4] = tested on: palpebral ptosis; experiment: Palpebral ptosis test in mouse; format: in vivo, mouse (male, ddy-strain); details: 64 mg/kg oral, 1 hour; score 0 (wide open eyes) to 8 (eyes completely closed); mean of 10 mice
Protocol: (D) Activity of palpebral ptosis test in mouse
Individual male mice of ddy-strain having 18 to 20 g of body weight were used. The mice were abstained from eating for 24 hours. One test group consists of 10 mice. […] One hour after the administration, the state of palpebral ptosis of the mouse were observed and evaluated on the basis of the following score system. The mean value was calculated from the scores of 10 mice.
Score Degree of palpebral ptosis
8 Eyes completely closed.

[5] = tested on: jumping behavior induced by Methamphetamine and L-DOPA; experiment: Activity for inhibiting jumping behavior in mouse induced by Methamphetamine and L-DOPA; format: in vivo, mouse (male, ddy-strain); details: read-out: ED50 value, inhibition of jumping behavior
Protocol: (B) Activity for inhibiting jumping behavior in mouse induced by Methamphetamine and L-DOPA
Individual male mice of ddy-strain having a body weight of 17 to 25 g were used. The mice were not fed for 24 hours. One test group consisted of 6 mice. A compound to be tested was administered orally. 40Minutes after the administration 4 mg/kg of Methamphetamine d-N-α-dimethylphenthylamine was intraperitonerally administered, further 15 minutes after the administration of Methamphetamine, 400 mg/kg of L-DOPA was intraperitonerally administered. 60 Minutes after the administration of L-DOPA, (3-(3,4-dihydroxyphenyl)alanine) the mouse was placed in a glass beaker of 2 liters capacity, and the number of jumping of the mouse was recorded. The activity for inhibiting jumping behavior of the test compound was determined as positive in case of number of jumping performed by the administered mouse counted 10 or less. While, the activity for inhibiting jumping behabior of the test compound was determined as negative in case the number of jumping performed by the administered mouse recorded over 10. The effective dosage (ED50 value: mg/kg) of the test compound which gives 3 mice were positive over 6 mice of one test group was calculated. The number of jumping performed by the mouse being administered with physiological saline solution as the reference was 150 to 200 per hour. (Cf. H. Lal, F. C. Colpaert, P. Laduron: European J. Pharmacol., 30, 113-116 (1975)).

[6] = oral, 1 hour before epinephrine 40 mg/kg i.p., survival at 24 hours
[7] = oral, Methamphetamine 4 mg/kg i.p. and L-DOPA 400 mg/kg i.p., positive = 10 or fewer jumps

| Structure (SMILES) | ED50 [1, 6] | Acute toxicity (LD50) [2] | ED50 [5, 7] | also measured |
| --- | --- | --- | --- | --- |
| O=C1CCc2cc(C(=O)CCN3CCN(c4ccccc4)CC3)ccc2N1 [Compound 1, 6-[1-Oxo-3-(4-phenyl-1-piperazinyl)propyl]-3,4-dihydrocarbostyril] | 3.03 mg/kg | 500 mg/kg | 1.35 mg/kg | Time (minutes) between introduction of anesthesia to waking [3]: 13.3 min; Score obtained (Mean value), degree of palpebral ptosis [4]: 1.67 |
| O=C1CCc2cc(CCCN3CCN(c4ccccc4)CC3)ccc2N1 [Compound 18, 6-[3-(4-Phenyl-1-piperazinyl)propyl]-3,4-dihydrocarbostyril] | 0.21 mg/kg | 500 mg/kg | 0.34 mg/kg |  |
| COc1ccccc1N1CCN(CC=Cc2ccc3c(c2)CCC(=O)N3)CC1 [Compound 19] | 0.1 mg/kg | 500 mg/kg | 0.79 mg/kg |  |
| O=C1CCc2cc(C(O)CCCN3CCN(c4cccc(Cl)c4)CC3)ccc2N1 (stereo not shown) [Compound 5, 6-{1-Hydroxy-4-[4-(3-chlorophenyl)-1-piperazinyl]butyl}-3,4-dihydrocarbostyril] |  | 500 mg/kg | 1.95 mg/kg | Time (minutes) between introduction of anesthesia to waking [3]: 13.0 min |
| CCOc1ccccc1N1CCN(CC=Cc2ccc3c(c2)CCC(=O)N3)CC1 [Compound 9, 6-{3-[4-(2-Ethoxyphenyl)-1-piperazinyl]-1-propenyl}-3,4-dihydrocarbostyril] | 0.005 mg/kg | 500 mg/kg | 0.12 mg/kg |  |
| CN(C)CCCN1c2ccccc2Sc2ccc(Cl)cc21 [Chlorpromazine, 2-chloro-N,N-dimethyl-10H-phenothiazine-10-propanamine, reference compound] |  |  |  | ED50 ([1]; po, 24 h): 10.6 mg/kg; ED50 ([5]; po): 7.6 mg/kg |
| O=C1CCc2cc(CCCCN3CCN(c4ccccc4Cl)CC3)ccc2N1 [Compound 14, 6-{4-[4-(2-Chlorophenyl)-1-piperazinyl]-butyl}-3,4-dihydrocarbostyril] |  |  | 3.23 mg/kg |  |
| CCOc1ccccc1N1CCN(CCCc2ccc3c(c2)CCC(=O)N3)CC1 [Compound 16, 6-{3-[4-(2-Ethoxyphenyl)-1-piperazinyl]-propyl}-3,4-dihydrocarbostyril] | 0.02 mg/kg | 500 mg/kg | 0.24 mg/kg |  |
| Cc1ccc(C2=CCN(CCC(=O)c3ccc4c(c3)CCC(=O)N4)CC2)cc1 [Compound 26, 6-{1-Oxo-3-[4-(4-methylphenyl)-1,2,5,6-tetrahydropyridyl]propyl}-3,4-dihydrocarbostiryl] |  |  |  | ED50 ([5]; po): 10.3 mg/kg |
| CCC(C(O)c1ccc2[nH]c(=O)ccc2c1)N1CCN(c2cccc(Cl)c2)CC1 (stereo not shown) [Compound 32, 6-{1-Hydroxy-2-[4-(3-chlorophenyl)-1-piperazinyl]butyl}carbostyril] |  |  | 4.86 mg/kg |  |
| CCOc1ccccc1N1CCN(CCCCc2ccc3c(c2)CCC(=O)N3)CC1 [Compound 15, 6-{4-[4-(2-Ethoxyphenyl)-1-piperazinyl]-butyl}-3,4-dihydrocarbostyril] | 0.71 mg/kg | 500 mg/kg | 0.39 mg/kg |  |
| O=C1CCc2cc(C(=O)CCN3CCN(c4cccc(Cl)c4)CC3)ccc2N1 [Compound 7, 6-{1-Oxo-3-[4-(3-chlorophenyl)-1-piperazinyl]-propyl}-3,4-dihydrocarbostyril.monohydrochloride] |  | 500 mg/kg | 1.34 mg/kg | Score obtained (Mean value), degree of palpebral ptosis [4]: 1.33 |
| O=C1CCc2cc(C=CCCN3CCN(c4ccccc4)CC3)ccc2N1 [Compound 11, 6-[4-(4-Phenyl-1-piperazinyl)-1-butenyl]-3,4-dihydrocarbostyril] | 4 to 8 mg/kg | 500 mg/kg | 1.6 mg/kg |  |
| CCC(C(=O)c1ccc2[nH]c(=O)ccc2c1)N1CCN(c2cccc(Cl)c2)CC1 (stereo not shown) [Compound 4, 6-{1-Oxo-2-[4-(3-chlorophenyl)-1-piperazinyl]butyl}-carbostyril] |  |  |  | Time (minutes) between introduction of anesthesia to waking [3]: 9.7 min; Score obtained (Mean value), degree of palpebral ptosis [4]: 2.33; ED50 ([5]; po): 4.05 mg/kg |
| COc1ccccc1C1CCN(CCCc2ccc3c(c2)CCC(=O)N3)CC1.O=C(O)C(=O)O [Compound 29, 6-{3-[4-(2-Methoxyphenyl)-1-piperidyl]-propyl}-3,4-dihydrocarbostyril monooxalate] |  |  | 2.01 mg/kg |  |
| COc1ccccc1N1CCN(CCCc2ccc3c(c2)CCC(=O)N3)CC1 [Compound 17, 6-{3-[4-(2-Methoxyphenyl)-1-piperazinyl] -propyl}-3,4-dihydrocarbostyril] | 0.29 mg/kg | 500 mg/kg |  |  |
| O=c1ccc2cc(CCCCN3CCN(c4ccccc4)CC3)ccc2[nH]1 [Compound 30, 6-[4-(4-Phenyl-1-piperazinyl)butyl]-carbostyril] |  | 500 mg/kg | 0.56 mg/kg |  |
| COc1ccccc1C1=CCN(CC=Cc2ccc3c(c2)CCC(=O)N3)CC1 [Compound 27, 6-{3-[4-(2-Methoxyphenyl)-1,2,5,6-tetrahydropyridyl]-1-propenyl}-3,4-dihydrocarbostyril monooxalate] |  |  |  | ED50 ([5]; po): 1.25 mg/kg |
| O=C1CCc2cc(C(=O)CCCN3CC=C(c4ccc(Cl)cc4)CC3)ccc2N1 [Compound 25, 6-{1-Oxo-4-[4-(4-chlorophenyl)-1,2,5,6-tetrahydropyridyl]butyl}-3,4-dihydrocarbostiryl] |  |  |  | ED50 ([5]; po): 9.56 mg/kg |
| O=C1CCc2cc(C(=O)CCCN3CC=C(c4ccccc4)CC3)ccc2N1 [Compound 28, 6-[1-Oxo-4-(4-phenyl-1,2,5,6-tetrahydropyridyl)butyl]-3,4-dihydrocarbostyril] |  |  |  | ED50 ([5]; po): 8.89 mg/kg |
| Cc1cccc(N2CCN(CCC(O)c3ccc4c(c3)CCC(=O)N4)CC2)c1C (stereo not shown) [Compound 6, 6-{1-Hydroxy-3-[4-(2,3-dimethylphenyl)-1-piperazinyl]-propyl}-3,4-dihydrocarbostryril] |  | 500 mg/kg |  | Time (minutes) between introduction of anesthesia to waking [3]: 8.2 min |
| O=C1CCc2cc(C(=O)CCCN3CCN(c4ccccc4)CC3)ccc2N1 [Compound 2, 6-[1-Oxo-4-(4-phenyl-1-piperazinyl)butyl]-3,4-dihydrocarbostyril.monohydrochloride] | 4.02 mg/kg | 500 mg/kg | 1.52 mg/kg | Time (minutes) between introduction of anesthesia to waking [3]: 11.5 min; Score obtained (Mean value), degree of palpebral ptosis [4]: 4.5 |
| CCOc1ccccc1N1CCN(CCC=Cc2ccc3c(c2)CCC(=O)N3)CC1 [Compound 12, 6-{4-[4-(2-Ethoxyphenyl)-1-piperazinyl]-1-butenyl}-3,4-dihydrocarbostyril] | 0.005 mg/kg |  | 0.056 mg/kg |  |
| O=C1CCc2cc(C=CCN3CCN(c4ccc(Cl)cc4)CC3)ccc2N1 [Compound 13, 6-{3-[4-(4-chlorophenyl)-1-piperazinyl]-1-propenyl}-3,4-dihydrocarbostyril] |  | 500 mg/kg | 4.16 mg/kg |  |
| CCOc1ccccc1N1CCN(CCC=Cc2ccc3[nH]c(=O)ccc3c2)CC1 [Compound 31, 6-{4-[4-(2-Ethoxyphenyl)-1-piperazinyl]-1-butenyl}carbostyril] |  |  | 0.14 mg/kg |  |
| O=C1CCc2cc(C=CCN3CCN(c4cccc(Cl)c4)CC3)ccc2N1 [Compound 8, 6-{3-[4-(3-Chlorophenyl)-1-piperazinyl]-1-propenyl}-3,4-dihydrocarbostyril] |  | 500 mg/kg | 1.02 mg/kg |  |
| Cc1cccc(N2CCN(CC=Cc3ccc4c(c3)CCC(=O)N4)CC2)c1 [Compound 10, 6-{3-[4-(3-Methylphenyl)-1-piperazinyl]-1-propenyl}-3,4-dihydrocarbostyril] |  | 500 mg/kg | 6.02 mg/kg |  |
